Biological target: T1, human OX2R (Homo sapiens, UniProt O43614)
T1 construct: expressed in transfected cells; host or cells: Chinese hamster ovary (CHO) cells, kept under G418 selection
T1 sequence (O43614 1-444): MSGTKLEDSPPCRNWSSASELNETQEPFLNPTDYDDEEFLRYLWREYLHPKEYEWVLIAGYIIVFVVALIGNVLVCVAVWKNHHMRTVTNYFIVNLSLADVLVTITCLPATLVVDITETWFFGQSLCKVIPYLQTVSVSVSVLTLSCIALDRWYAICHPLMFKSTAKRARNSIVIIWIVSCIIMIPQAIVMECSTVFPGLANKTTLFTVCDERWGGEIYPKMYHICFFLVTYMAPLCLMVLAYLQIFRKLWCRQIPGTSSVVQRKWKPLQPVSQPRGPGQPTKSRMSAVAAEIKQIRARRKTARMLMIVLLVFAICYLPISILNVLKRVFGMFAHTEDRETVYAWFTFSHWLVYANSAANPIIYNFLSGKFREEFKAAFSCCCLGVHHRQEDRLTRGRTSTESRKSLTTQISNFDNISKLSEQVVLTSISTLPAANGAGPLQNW
Test: IPOne (IP-One) orexin receptor agonist assay in CHO cells expressing human OX2R
Format: cell-based
Conditions: for EC50: CHO cells expressing human OX2R, IP-One detection, 2 hours incubation, four parameter logistic fit, read-out: OX2R Potency, EC50; for % max agonist effect (Emax): human OX2R, percentage of sample raw value/mean max effect (reference compound at 1 uM with 100% activity)
From the text: The utility of the compounds in accordance with the present invention as orexin receptor OX1R and/or OX2R agonists may be readily determined without undue experimentation by methodology well known in the art. Both the OX1R and/or OX2R G-coupled protein receptors (GPCRs) couple through the Gaq signaling pathway, which ultimately promotes calcium mobilization via inositol triphosphate (IP3) production. […] The utility of the compounds in accordance with the present invention as orexin receptor OX1R and/or OX2R agonists may be determined utilizing this assay.
In a typical experiment, the OX1 and OX2 receptor agonist activity is determined in accordance with the following general experimental method. Chinese hamster ovary (CHO) cells expressing human OX1R and/or the human OX2R were grown in Iscove's modified DMEM containing glutaMAX™, 1% G418, 100 U/mL penicillin, 100 μg/mL streptomycin and 10% heat-inactivated qualified fetal bovine serum (FBS). […] During this incubation, IP-one detection reagents were prepared (38:1:1 lysis buffer:D2:AB-cryptate reagents).
For each compound, data were fit to a four parameter logistic fit (ActivityBase software) and the EC50 was reported as the inflection point of the resulting curve. Percent effect for each test compound was determined as the percentage of sample raw value/mean max effect, where the mean max effect was derived from the mean raw value of 32 control wells per assay plate (using Orexin A (cat #003-30) at 1 μM for human OX1R and a reference compound at 1 uM with 100% activity previously established by comparison to Orexin A for human OX2R). The intrinsic orexin receptor agonist activity of a compound which may be used in the present invention may be determined by these assays.

SMILES | EC50 | % max agonist effect (Emax)
CS(=O)(=O)N[C@H]1CCN(c2cncc(-c3ccccc3)c2)[C@H]1CO[C@H]1CC[C@@H](c2ccccc2)CC1 (relative stereo) [Example 1, N-((CIS)-2-((((CIS)-4-Phenylcyclohexyl)oxy)methyl)-1-(5-phenylpyridin-3-yl)pyrrolidin-3-yl)methanesulfonamide] | > 10000 nM | 35.7%
Cn1cc(N2CC[C@H](NS(C)(=O)=O)[C@@H]2CO[C@H]2CC[C@@H](c3ccccc3)CC2)cn1 (relative stereo) [Example 2, N-((CIS)-1-(1-methyl-1H-pyrazol-4-yl)-2-((((CIS)-4-phenylcyclohexyl)oxy)methyl)pyrrolidin-3-yl)methanesulfonamide] | 896 nM | 89.7%
CS(=O)(=O)N[C@H]1CCN(c2ccc(C(F)(F)F)cc2)[C@H]1CO[C@H]1CC[C@@H](c2ccccc2)CC1 (relative stereo) [Example 3, N-((CIS)-2-((((CIS)-4-phenylcyclohexyl)oxy)methyl)-1-(4-(trifluoromethyl)phenyl)pyrrolidin-3-yl)methanesulfonamide] | > 10000 nM | 7.9%
CS(=O)(=O)N[C@H]1CCN(c2cncc3ccccc23)[C@H]1CO[C@H]1CC[C@@H](c2ccccc2)CC1 (relative stereo) [Example 4, N-((CIS)-1-(isoquinolin-4-yl)-2-((((CIS)-4-phenylcyclohexyl)oxy)methyl)pyrrolidin-3-yl)methanesulfonamide] | 1070 nM | 97.3%
Cn1cnc(N2CC[C@H](NS(C)(=O)=O)[C@@H]2CO[C@H]2CC[C@@H](c3ccccc3)CC2)n1 (relative stereo) [Example 5, N-((CIS)-1-(1-methyl-1H-1,2,4-triazol-3-yl)-2-((((CIS)-4-phenylcyclohexyl)oxy)methyl)pyrrolidin-3-yl)methanesulfonamide] | 5960 nM | 80.4%
COc1ccc(N2CC[C@H](NS(C)(=O)=O)[C@@H]2CO[C@H]2CC[C@@H](c3ccccc3)CC2)cc1 (relative stereo) [Example 6, N-((CIS)-1-(4-methoxyphenyl)-2-((((CIS)-4-phenylcyclohexyl)oxy)methyl)pyrrolidin-3-yl)methanesulfonamide] | 9220 nM | 25.1%
CS(=O)(=O)N[C@H]1CCN(c2cnc3cc[nH]c3c2)[C@H]1CO[C@H]1CC[C@@H](c2ccccc2)CC1 (relative stereo) [Example 7, N-((CIS)-2-((((CIS)-4-phenylcyclohexyl)oxy)methyl)-1-(1H-pyrrolo[3,2-b]pyridin-6-yl)pyrrolidin-3-yl)methanesulfonamide] | 90.5 nM | 100.1%
Cn1cc(N2CC[C@H](NS(C)(=O)=O)[C@@H]2CO[C@H]2CC[C@@H](c3ccccc3)CC2)nn1 (relative stereo) [Example 8, N-((CIS)-1-(1-methyl-1H-1,2,3-triazol-4-yl)-2-((((CIS)-4-phenylcyclohexyl)oxy)methyl)pyrrolidin-3-yl)methanesulfonamide] | 152 nM | 101.2%
Cc1ncc(N2CC[C@H](NS(C)(=O)=O)[C@@H]2CO[C@H]2CC[C@@H](c3ccccc3)CC2)s1 (relative stereo) [Example 9, N-((CIS)-1-(2-methylthiazol-5-yl)-2-((((CIS)-4-phenylcyclohexyl)oxy)methyl)pyrrolidin-3-yl)methanesulfonamide] | 1900 nM | 92.1%
Cc1nnc(N2CC[C@H](NS(C)(=O)=O)[C@@H]2CO[C@H]2CC[C@@H](c3ccccc3)CC2)s1 (relative stereo) [Example 10, N-((CIS)-1-(5-methyl-1,3,4-thiadiazol-2-yl)-2-((((CIS)-4-phenylcyclohexyl)oxy)methyl)pyrrolidin-3-yl)methanesulfonamide] | 242 nM | 99.6%
Cc1nc(-c2ccccc2)sc1N1CC[C@H](NS(C)(=O)=O)[C@@H]1CO[C@H]1CC[C@@H](c2ccccc2)CC1 (relative stereo) [Example 11, N-((CIS)-1-(4-methyl-2-phenylthiazol-5-yl)-2-((((CIS)-4-phenylcyclohexyl)oxy)methyl)pyrrolidin-3-yl)methanesulfonamide] | 3450 nM | 87.7%
Cc1nnc(-c2ccc(N3CC[C@H](NS(C)(=O)=O)[C@@H]3CO[C@H]3CC[C@@H](c4ccccc4)CC3)cc2)o1 (relative stereo) [Example 12, N-((CIS)-1-(4-(5-methyl-1,3,4-oxadiazol-2-yl)phenyl)-2-((((CIS)-4-phenylcyclohexyl)oxy)methyl)pyrrolidin-3-yl)methanesulfonamide] | 10500 nM | 68.8%
CS(=O)(=O)N[C@H]1CCN(c2csc(-c3ccncc3)n2)[C@H]1CO[C@H]1CC[C@@H](c2ccccc2)CC1 (relative stereo) [Example 13, N-((CIS)-2-((((CIS)-4-phenylcyclohexyl)oxy)methyl)-1-(2-(pyridin-4-yl)thiazol-4-yl)pyrrolidin-3-yl)methanesulfonamide] | 1720 nM | 83.9%
Cn1cnc(N2CC[C@H](NS(C)(=O)=O)[C@@H]2CO[C@H]2CC[C@@H](c3ccccc3)CC2)n1 [Example 14, N-((2R,3S)-1-(1-Methyl-1H-1,2,4-triazol-3-yl)-2-((((CIS)-4-phenylcyclohexyl)oxy)methyl)-pyrrolidin-3-yl)methanesulfonamide] | 3720 nM | 87.9%
Cn1ncnc1N1CC[C@H](NS(C)(=O)=O)[C@@H]1CO[C@H]1CC[C@@H](c2ccccc2)CC1 [Example 15, N-((2R,3S)-1-(1-methyl-1H-1,2,4-triazol-5-yl)-2-((((CIS)-4-phenylcyclohexyl)oxy)methyl)pyrrolidin-3-yl)methanesulfonamide] | 33.7 nM | 101.6%
CS(=O)(=O)N[C@H]1CCN(c2ccccn2)[C@H]1CO[C@H]1CC[C@@H](c2ccccc2)CC1 [Example 16, N-((2R,3S)-2-((((CIS)-4-phenylcyclohexyl)oxy)methyl)-1-(pyridin-2-yl)pyrrolidin-3-yl)methanesulfonamide] | 174 nM | 101.3%
CS(=O)(=O)N[C@H]1CCN(c2ccon2)[C@H]1CO[C@H]1CC[C@@H](c2ccccc2)CC1 [Example 17, N-((2R,3S)-1-(isoxazol-3-yl)-2-((((CIS)-4-phenylcyclohexyl)oxy)methyl)pyrrolidin-3-yl)methanesulfonamide] | 102 nM | 100.4%
CS(=O)(=O)N[C@H]1CCN(c2ccns2)[C@H]1CO[C@H]1CC[C@@H](c2ccccc2)CC1 [Example 18, N-((2R,3S)-1-(isothiazol-5-yl)-2-((((CIS)-4-phenylcyclohexyl)oxy)methyl)pyrrolidin-3-yl)methanesulfonamide] | 2910 nM | 87.4%
CS(=O)(=O)N[C@H]1CCN(c2ccsc2)[C@H]1CO[C@H]1CC[C@@H](c2ccccc2)CC1 [Example 19, N-((2R,3S)-2-((((CIS)-4-phenylcyclohexyl)oxy)methyl)-1-(thiophen-3-yl)pyrrolidin-3-yl)methanesulfonamide] | 347 nM | 99.8%
CS(=O)(=O)N[C@H]1CCN(c2cccnc2)[C@H]1CO[C@H]1CC[C@@H](c2ccccc2)CC1 [Example 20, N-((2R,3S)-2-((((CIS)-4-phenylcyclohexyl)oxy)methyl)-1-(pyridin-3-yl)pyrrolidin-3-yl)methanesulfonamide] | 20.4 nM | 101.0%
CS(=O)(=O)N[C@H]1CCN(c2ccc(F)c(C(F)F)c2)[C@H]1CO[C@H]1CC[C@@H](c2ccccc2)CC1 [Example 21, N-((2R,3S)-1-(3-(difluoromethyl)-4-fluorophenyl)-2-((((CIS)-4-phenylcyclohexyl)oxy)methyl)pyrrolidin-3-yl)methanesulfonamide] | 8490 nM | 57.0%
CS(=O)(=O)N[C@H]1CCN(c2ccc(C(F)F)cc2F)[C@H]1CO[C@H]1CC[C@@H](c2ccccc2)CC1 [Example 22, N-((2R,3S)-1-(4-(difluoromethyl)-2-fluorophenyl)-2-((((CIS)-4-phenylcyclohexyl)oxy)methyl)pyrrolidin-3-yl)methanesulfonamide] | > 10000 nM | 57.5%
